This note sets out measurements from patent US20250221987A1, “PIPERAZINO RING-CONTAINING DERIVATIVE, PHARMACEUTICALLY ACCEPTABLE SALT THEREOF, PREPARATION METHOD THEREFOR, AND APPLICATION THEREOF” (ACERAND THERAPEUTICS (HONG KONG) LIMITED, priority 2022, published 2025).

Where two headings read alike, the source gives them in different places.

Data set [1] is described as follows: Pharmacokinetic study in ICR (CD-1) mice. In kind it is in vivo. The conditions noted are these: male ICR (CD-1) mice, tail vein 1 mg/kg, oral 3 mg/kg groups, plasma; for half-life: mouse, read-out: Half-life t1/2 (converted). The method, then: ICR (CD-1) male mice, 3 mice per group. One group of mice was injected with the compound to be tested via the tail vein at a dose of 1 mg/kg. The other group of mice was administered the compound to be tested via single-dose oral administration at a dose of 3 mg/kg. In the tail vein injection group, blood was collected from the saphenous vein at 5 minutes, 15 minutes, 30 minutes, 1 hour, 2 hours, 4 hours, 8 hours, and 24 hours post-administration. In the single-dose oral administration group, blood was collected at 15 minutes, 30 minutes, 1 hour, 2 hours, 4 hours, 8 hours, and 24 hours post-administration. The collected blood was placed in an EDTA-K2 anticoagulant tube, and 30 μL of whole blood was collected at each time point. Immediately after collection, blood samples were placed on wet ice for centrifugation. Samples would be centrifuged (maintained at 4600 rpm for 5 minutes at 4° C.) within 30 minutes to obtain plasma. The plasma sample was placed into a test tube (a target of 12 to 20 μL) for analysis. […] of plasma was added with 5 μL of MeOH, then added with 200 μL of MeOH/ACN solution containing 5 ng/mL of ISTD (Terfenadine), mixed well with shaking, and centrifuged at 4000 rpm for 15 minutes. The supernatant was diluted 5-fold with MeOH/water (1:1, v/v, 0.1% FA), and loaded to LC-MS/MS for quantification of plasma concentration by analytical methods and calculation of pharmacokinetic parameters.

For the next data set, the target named is PARP1 (Homo sapiens (Human), UniProt P09874). Briefly: PARP1 enzymatic activity assay. It is filed as biochemical. To be noted: for IC50: final PARP1 0.02 nM, DNA 0.8 nM, NAD+ 3.5 μM, 60 minutes; for PARP1/PARP2 inhibition Selectivity multiple N (N = IC50 (PARP2)/IC50 (PARP1)): ratio IC50 (PARP2)/IC50 (PARP1). The method, then: 2) After the coating was completed, the coating buffer was discarded.
Chain of PARP1 (P09874 whole entry): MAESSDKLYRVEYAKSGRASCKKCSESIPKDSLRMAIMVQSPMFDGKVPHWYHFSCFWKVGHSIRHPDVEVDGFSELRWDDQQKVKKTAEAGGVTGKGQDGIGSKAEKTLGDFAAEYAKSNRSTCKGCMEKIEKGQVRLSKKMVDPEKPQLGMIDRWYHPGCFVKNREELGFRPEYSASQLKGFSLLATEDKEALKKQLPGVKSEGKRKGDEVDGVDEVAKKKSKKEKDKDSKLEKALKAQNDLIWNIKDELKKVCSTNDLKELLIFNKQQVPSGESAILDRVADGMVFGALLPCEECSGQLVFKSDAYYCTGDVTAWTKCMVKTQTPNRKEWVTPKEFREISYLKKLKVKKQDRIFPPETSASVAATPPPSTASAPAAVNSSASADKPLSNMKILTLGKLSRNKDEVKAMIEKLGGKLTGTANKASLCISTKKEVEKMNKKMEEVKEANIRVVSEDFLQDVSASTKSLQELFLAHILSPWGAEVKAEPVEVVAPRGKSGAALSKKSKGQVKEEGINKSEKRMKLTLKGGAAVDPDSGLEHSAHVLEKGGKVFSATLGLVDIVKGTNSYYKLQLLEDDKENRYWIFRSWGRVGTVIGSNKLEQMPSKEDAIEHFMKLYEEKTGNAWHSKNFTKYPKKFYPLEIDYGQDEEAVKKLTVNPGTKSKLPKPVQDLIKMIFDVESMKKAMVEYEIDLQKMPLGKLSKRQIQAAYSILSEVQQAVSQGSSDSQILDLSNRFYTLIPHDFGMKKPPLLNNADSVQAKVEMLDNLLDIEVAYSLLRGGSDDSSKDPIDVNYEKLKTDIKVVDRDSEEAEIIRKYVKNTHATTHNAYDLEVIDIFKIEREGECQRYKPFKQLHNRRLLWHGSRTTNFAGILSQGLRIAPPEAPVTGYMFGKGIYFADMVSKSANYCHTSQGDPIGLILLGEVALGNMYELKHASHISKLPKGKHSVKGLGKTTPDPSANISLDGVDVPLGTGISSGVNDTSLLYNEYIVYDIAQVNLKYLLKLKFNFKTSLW
After washing, the blocking buffer was discarded.
4) 1000× compound was prepared. 1 μL of compound was transferred to a 96-well plate containing 199 μL of reaction buffer (50 mM Tris-HCl (pH 7.5), 0.005% Tween-20, 0.01% BSA) and mixed well.
5) 25/10×PARP1-DNA solution was prepared with reaction buffer.
6) 25/10×NAD+ solution was prepared with reaction buffer.
8) Primary antibody was 2000-fold diluted with the blocking buffer. 20 μL of primary antibody was added to the reaction plate, which was incubated at room temperature for 1.5 hours.
9) The primary antibody was discarded.
10) Secondary antibody was 2000-fold diluted with the blocking buffer.
11) The secondary antibody was discarded.
The chemiluminescence value RLU was read with Envision.

Another data set concerns the target PARP2 (Homo sapiens (Human), UniProt Q9UGN5). As to the kind of experiment: PARP2 enzymatic activity assay. It is filed as biochemical. To be noted: Biotin-NAD+ 2 μM, 60 minutes.
The next data set relates to MDA-MB-436 cells. As to the kind of experiment: Proliferation activity assay of MDA-MB-436 cells (CellTiter-Glo). In kind it is cell-based. To be noted: 4000 cells seeded, 6 days incubation, read-out: MDA-MB-436 proliferation inhibition IC50. As to the method: Complete culture medium was prepared and mixed thoroughly. The cells were resuscitated and cultured for about two passages to select a cell line in good growth condition. The cell culture flask was removed from the incubator. Cell adherence: the culture medium was aspirated, then the cells were washed once with trypsin to discard the waste liquid, and 3 mL of fresh trypsin was added to the culture flask for digestion. When the cells were loose to be detached from the wall of the flask, 8 mL of complete culture medium was added thereto to stop trypsin digestion and mixed gently. The cell suspension was transferred to a centrifuge tube with a pipette and centrifuged at 1000 rpm for 5 minutes. The supernatant was discarded. An appropriate volume of culture medium was added to the centrifuge tube and pipetted gently to resuspend the cells evenly. The cells were counted using a Vi-Cell XR cell counter. The cell suspension was adjusted to an appropriate concentration. The cell suspension was added to a 96-well plate at 100 µL/well. The details such as cell name, seeding density, and date were labelled, and the culture plate was placed in a CO2 incubator overnight.
The compound to be tested was prepared into a 10 mM stock solution, which was aliquoted and stored in a −20° C. freezer. The compound solution was added to a 96-well plate using HPD300. The plate was incubated in a CO2 incubator for a total of 6 days.
CellTiter-Glo buffer was melted at room temperature. The lyophilized CellTiter-Glo substrate was equilibrated to room temperature. CellTiter-Glo buffer was added to the CellTiter Glo substrate and mixed thoroughly. A cell plate was taken out and equilibrated to room temperature. 100 μL of mixed CellTiter Glo reagent was added to each well, and the mixture was shaken in the dark for 10 minutes, followed by incubation for 20 minutes. The culture plate was placed into an Enspire reading plate, and the luminescence reading results were recorded. […] A pharmacodynamic inhibition rate curve was plotted by using XLFit, and the IC50 value was calculated. The 4-parameter model [fit=(A+((B−A)/(1+((C/x)^D)))] was used.
(Cellular ATP, detected with luciferase, serves as a proxy for viable cell number.)

Setting [2] is: Homo sapiens, MDA-MB-436, 144 h.

Chain of PARP2 (Q9UGN5 whole entry): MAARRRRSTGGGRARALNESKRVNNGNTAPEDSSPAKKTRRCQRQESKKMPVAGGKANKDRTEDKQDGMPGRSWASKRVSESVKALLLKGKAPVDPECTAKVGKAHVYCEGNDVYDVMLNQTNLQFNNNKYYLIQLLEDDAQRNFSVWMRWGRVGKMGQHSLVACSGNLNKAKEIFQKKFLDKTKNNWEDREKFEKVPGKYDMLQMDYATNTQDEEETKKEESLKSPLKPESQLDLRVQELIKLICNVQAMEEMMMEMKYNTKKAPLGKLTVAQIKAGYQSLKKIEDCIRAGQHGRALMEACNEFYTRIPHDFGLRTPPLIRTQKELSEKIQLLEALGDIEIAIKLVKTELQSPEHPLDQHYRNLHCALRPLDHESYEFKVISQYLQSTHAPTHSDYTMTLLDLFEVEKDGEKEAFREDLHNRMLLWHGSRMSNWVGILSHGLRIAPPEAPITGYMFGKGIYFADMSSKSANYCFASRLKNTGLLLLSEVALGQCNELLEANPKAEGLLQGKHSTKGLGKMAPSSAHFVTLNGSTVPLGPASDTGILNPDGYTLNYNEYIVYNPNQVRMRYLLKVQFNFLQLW

For the compound `CCc1cc2ncc(CN3CCN(c4ccc(C(=O)NC)nc4)CC3)cc2[nH]c1=O` [AZD5305, reference compound], in data set [1], the “Clearance” value worked out at 10.3 mL/h/kg and the half-life was 8.04 h.
With `CCc1cc2ncc(CN3CCN(c4ccc(C(=O)NC)nc4)[C@@H]4CC[C@@H]43)cc2[nH]c1=O` [Example 2-2, 5-((1R,6S)-5-((7-ethyl-6-carbonyl-5,6-dihydro-1,5-naphthyridin-3-yl)methyl)-2,5-diazabicyclo[4.2.0]octan-2-yl)-N-methylpyridine-2-carboxamide], the IC50 was found to be 0.6 nM on PARP1, 46.4 nM on PARP2 (final PARP2 […]) and 1 nM in the data set on MDA-MB-436 cells. On PARP1, the “PARP1/PARP2 inhibition Selectivity multiple N (N = IC50 (PARP2)/IC50 (PARP1))” value is given as 71. In addition, the “Clearance” value in data set [1] came to 1.74 mL/h/kg. In data set [1], the “Half-life t1/2” value came out at 57.9 h.
As for `CNC(=O)c1ccc(N2CCN(Cc3cnc4c5c(c(=O)[nH]c4c3)CCC5)[C@H]3CC[C@H]32)cn1` [Example 12-2, N-methyl-5-[(1R,6S)-5-((6-oxo-5H,7H,8H,9H-cyclopenta[c][1,5]naphthyridin-3-yl)methyl)-2,5-diazabicyclo[4.2.0]octan-2-yl]pyridine-2-carboxamide], at PARP1, the IC50 worked out at 0.5 nM and the “PARP1/PARP2 inhibition Selectivity multiple N (N = IC50 (PARP2)/IC50 (PARP1))” value is 120. For the same compound, at PARP2 (final PARP2 1.5 nM), the IC50 is 60 nM. Further, in the data set with MDA-MB-436 cells (setting [2]), the IC50 was 2 nM. Also, in data set [1], the “Clearance” value was 1.92 mL/h/kg and the half-life is 41.3 h.
Consider `CCc1cc2ncc(CN3CCN(c4ccc(-c5nnc(C)[nH]5)nc4)[C@@H]4CC[C@@H]43)cc2[nH]c1=O` [Example 29-2], for which the values for the IC50 on PARP1, on PARP2 (final PARP2 […]) and in the data set with MDA-MB-436 cells were 0.7 nM, 30 nM and 13 nM, respectively. Besides, the “PARP1/PARP2 inhibition Selectivity multiple N (N = IC50 (PARP2)/IC50 (PARP1))” value on PARP1 came to 43.
For `CNC(=O)c1ccc(N2CCN(Cc3cnc4cc(C(F)(F)F)c(=O)[nH]c4c3)[C@H]3CC[C@H]32)cn1` [Example 30-2, N-methyl-5-((1R,6S)-5-((6-oxo-7-(trifluoromethyl)-5,6-dihydro-1,5-naphthyridin-3-yl)methyl)-2,5-diazabicyclo[4.2.0]octan-2-yl)picolinamide], on PARP1, the IC50 was determined as 1.2 nM and the “PARP1/PARP2 inhibition Selectivity multiple N (N = IC50 (PARP2)/IC50 (PARP1))” value is given as 39. This compound also gave an IC50 on PARP2 (final PARP2 1.5 nM) of 47 nM. Further, the IC50 in the data set on MDA-MB-436 cells (setting [2]) amounted to 1 nM. For the same compound, in data set [1], the “Clearance” value came to 1.62 mL/h/kg and the half-life is 47.6 h.
`CNC(=O)c1ccc(N2CCN(Cc3cnc4c5c(c(=O)[nH]c4c3)OCCC5)[C@@H]3CC[C@@H]32)cn1` [Example 31-1, N-methyl-5-((1S,6R)-5-((6-oxo-6,8,9,10-tetrahydro-5H-pyrano[2,3-c][1,5]naphthyridin-3-yl)methyl)-2,5-diazabicyclo[4.2.0]octan-2-yl)picolinamide]: the IC50 is 0.3 nM against PARP1, 91 nM on PARP2 (final PARP2 1.5 nM) and 3 nM in the data set with MDA-MB-436 cells (setting [2]). In addition, the “PARP1/PARP2 inhibition Selectivity multiple N (N = IC50 (PARP2)/IC50 (PARP1))” value on PARP1 is on record as 303.
